From patent publication US20130231472A1, “USE OF MOLECULAR MARKERS FOR THE PRECLINICAL PROFILING OF INHIBITORS OF ENZYMES HAVING HISTONE DEACETYLASE ACTIVITY” (priority 2002, published 2013)

Key:
acetylated histones = test: Histone acetylation in spleen after in vivo treatment (Western blot, immunohistochemistry); design: species or system mice; conditions: for histone acetylation, spleen whole cell extracts: VPA 400 mg/kg, three and six hours, FIG. 2A
Experimental: FIG. 2: (A) Secondary acute promyelocytic leukemias were induced in mice as described above. (A) Leukemic mice or healthy mice (Ctrl) were then treated with placebo or VPA (400 mg/kg) for three and six hours. Mice were then sacrificed, whole cell extracts were prepared from the spleen (with >70% leukemic infiltration), and analyzed by SDS-PAGE followed by Western blot analysis using commercially available antibodies against acetylated histone H3. (B) Immunohistochemistry analysis of VPA-treated leukemic mice using a monoclonal antibody against acetylated histones.

HDAC-2 [1] = test: HDAC-2 protein levels in F9 teratocarcinoma cells (Westernblot); type: cell-based, murine
Experimental: (§1) FIG. 6: (A) F9 teratocarcinoma or HEK293T embryonic kidney cells were exposed for indicated times to 1 mM VPA. Protein levels of HDAC-2 and HDACs 1 or 3 for reference (HDAC8; N-CoR and Sin3 as data not shown) were determined by Westernblot analysis. […] (C) The effect of other HDAC inhibitors on the amount of HDAC-2 protein was determined by using TSA (100 nM) in a time course analysis in F9 cells (left panel). The HDAC inhibitors TSA (100 nM), trapoxin (TPX, 10 nM), butyrate (1.5 mM) or MS275 (5 μM) were tested at a single time of exposure in HEK293T cells (right panel).

HDAC-2 [2] = test: HDAC-2 protein levels in HEK293T cells (Westernblot); type: cell-based, human
Experimental: as §1
FIG. 9: (A) HEK293T cells were treated for 24 h with VPA or left untreated. The cell penetrating protease inhibitors pepstatin A, leupeptin, or ALLM were added as indicated at the time of VPA addition. (B) Proteasome inhibitors ALLN or MG-132 were added at the indicated concentrations 4 h before cells were harvested. Protein levels of HDAC-2 were determined by Westernblot analysis.

HDAC-2 [3] = test: HDAC-2 protein levels in K562 leukemia cells; type: cell-based, human
HDAC-2 mRNA = HDAC-2 mRNA levels in F9 cells (Northern blot); type: cell-based, murine; conditions: 1 mM VPA, FIG. 7
Experimental: FIG. 7: F9 cells or HEK 293T cells were treated for indicated times with 1 mM VPA and the levels of HDAC-2 mRNA were determined by Northern blot analysis from 5 μg polyA^+ RNA.

HDAC-2 [4] = test: Ubiquitinated proteins in anti HDAC-2 immune precipitates (Westernblot against ubiquitin); type: cell-based; conditions: FIG. 10A
Source text: FIG. 10: (A) The total amount of high molecular weight poly-ubiquitinated protein was not altered by VPA treatment of cells (left two lanes). The presence of ubiquitinated proteins in anti HDAC-2 immune precipitates is shown in the right part of the panel. […] Ubiquitinated proteins in the precipitates were detected by Western blot analysis. For lane N a non-immune serum was used instead of the anti HDAC-2 antibody. (B) The presence of mono- and/or oligo-ubiquitinated HDAC-2 upon VPA treatment of HEK293T cells was determined by ectopic expression of His6-tagged ubiquitin followed by VPA-treatment for 36 h as indicated. The proteasome inhibitor MG-132 was added 4 h prior to analysis to enhance the accumulation of ubiquitinated proteins. Electrophoretic mobility and unaltered presence of non-ubiquitinated HDAC-2 were determined by Westernblot analysis of whole cell extracts (left panel). […] Anti-HDAC-2 immuno-reactive bands with the expected mobility of mono- or poly-ubiquitinated HDAC-2 are indicated by a bracket.

HDAC-2 [5] = test: Ubiquitinated HDAC-2 by His6-tagged ubiquitin / Ni2+-NTA agarose precipitation in HEK293T cells; type: cell-based, human; conditions: VPA 36 h, FIG. 10B
Experimental: FIG. 10: (A) The total amount of high molecular weight poly-ubiquitinated protein was not altered by VPA treatment of cells (left two lanes). The presence of ubiquitinated proteins in anti HDAC-2 immune precipitates is shown in the right part of the panel. Cells had either been left untreated, were exposed to VPA (1.5 mM, 24 h) or the proteasome inhibitor ALLN (5 μM, 24 h) or both. Ubiquitinated proteins in the precipitates were detected by Western blot analysis. For lane N a non-immune serum was used instead of the anti HDAC-2 antibody. (B) The presence of mono- and/or oligo-ubiquitinated HDAC-2 upon VPA treatment of HEK293T cells was determined by ectopic expression of His6-tagged ubiquitin followed by VPA-treatment for 36 h as indicated. The proteasome inhibitor MG-132 was added 4 h prior to analysis to enhance the accumulation of ubiquitinated proteins. Electrophoretic mobility and unaltered presence of non-ubiquitinated HDAC-2 were determined by Westernblot analysis of whole cell extracts (left panel). Ubiquitinated proteins were precipitated with Ni^2+-NTA-agarose and analyzed for presence of ubiquitinated HDAC-2 (middle panel) by Westernblot analysis of precipitates. Anti-HDAC-2 immuno-reactive bands with the expected mobility of mono- or poly-ubiquitinated HDAC-2 are indicated by a bracket.

Ubc8 = Ubc8 expression in F9 cells (Northern blot, real time PCR); type: cell-based, murine; conditions: 1 mM VPA, FIG. 11
Experimental: FIG. 11 (A) F9 cells were treated for indicated times with 1 mM VPA and abundance of Ubc8 mRNA was determined by Northern blot analysis from 5 μg polyA^+ mRNA with a probe drived from the 3′-UTR of the cDNA. GAPDH mRNA was determined as reference. Phosphorimager analysis was performed for quantitative evaluation and relative values normalized for GAPDH are presented below the graph. One of two experiments with similar results is shown. (B) Ubc8 mRNA was also determined by real time PCR assuming an 1.5-fold amplification per cycle. The amplicon was part of the coding sequence of the Ubc8 mRNA. F9 cells were treated for 17 h with 1 mM VPA (V) or 100 nM TSA (T). Results were normalized for GAPDH expression. Average values ± range of duplicate determinations are shown.

CCCC(CCC)C(=O)O [VPA, Valproic acid]
histone acetylation, spleen whole cell extracts (acetylated histones; leukemic mice (>70% leukemic infiltration)): enhanced levels of histone acetylation | histone acetylation by immunohistochemistry (acetylated histones; leukemic mice, monoclonal antibody against acetylated histones, FIG. 2B): dramatic increase of histone acetylation in all cells | histone acetylation, spleen whole cell extracts (acetylated histones; normal mice): enhanced levels of histone acetylation | HDAC-2 protein levels relative to untreated cells (HDAC-2 [1]; 1 mM VPA, 24 h, persists up to 48 h, FIG. 6A (F9 and HEK293T, cell line not given)): about 30% | HDAC-2 protein levels (HDAC-2 [1]; F9 cells, VPA 1 mM, TSA 100 nM up to 48 h): reduced | HDAC-2 protein levels (HDAC-2 [2]; HEK293T cells, VPA 1 mM, TSA 100 nM, trapoxin 10 nM, butyrate 1.5 mM, MS275 5 μM): reduced | HDAC-2 protein levels at higher doses (HDAC-2 [2]; HEK 293T, VPA concentrations increased up to 5 or 10 mM, 36 h, FIG. 6B): slightly more pronounced reduction | HDAC-2 protein levels (HDAC-2 [3]): reduced | HDAC-2 mRNA levels (HDAC-2 mRNA): no response of HDAC-2 mRNA levels | amount of ubiquitinated protein precipitated with antibody against HDAC-2 (HDAC-2 [4]; VPA 1.5 mM, 24 h, ALLN 5 μM): increase the amount of this anti-ubiquitin reactive protein | overall amount of cellular ubiquitinated proteins (HDAC-2 [4]; VPA treatment): moderately reduced | gross abundance of ubiquitinated proteins (anti His-tag) (HDAC-2 [5]): not altered | oligo- and polyubiquitinated HDAC-2 bands in Ni2+-NTA-agarose precipitates (HDAC-2 [5]; MG-132 added 4 h prior to analysis): much more abundant | expression of the gene encoding Ubc8 (Ubc8): inducible by VPA
